# From patent publication US10940139B2, “Compounds that interact with the Ras superfamily for the treatment of cancers, inflammatory diseases, rasopathies, and fibrotic disease” (Shy Therapeutics LLC, priority 2017, dated 2021)
# Tested on: MAPK phosphorylation in PANC-1 pancreatic cancer cell line
# Assay: MAPK cell-based phosphorylation assay (cell-direct ELISA, EGF stimulation)
# Conditions: Homo sapiens
# Outline: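 Cell-direct ELISA measured phospho-MAPK, with fluorescence read at 595 nm from AmpliFlu Red. Before fixation, PANC-1 cells starved overnight received 6 hours of compound (30 μM single dose or serial dilutions, 0.3% DMSO, 37° C), followed by 1.5 ng/ml EGF for 15 min.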
row,IC50,SMILES
1,> 30 µM,COc1cccc(N2CCN(C(=O)c3csc4c(O)nc(-c5ccccn5)nc34)CC2)c1 [drawing 1118]
2,> 30 µM,COc1ccnc(-c2nc(O)c3ccsc3n2)c1 [drawing 1114]

row,SMILES,IC50
1,Oc1nc(-c2ccccn2)nc2c(Br)csc12 [drawing 1064],2 to 10 µM

# Same assay, conditions: Homo sapiens, * = tested at 10 μM
row,SMILES,inhibition at 10 µM
1,CC(C)COc1ccc(-c2csc3c(O)nc(-c4cn(C)cn4)nc23)cn1 [drawing 1365],1 to 25%
2,CCn1nc(C)cc1-c1csc2c(O)nc(-c3ccccn3)nc12 [drawing 1239],1 to 25%
3,COCCNc1nc(-c2nccn2C)nc2sc(-c3ccc(OC)cc3)c(-c3ccccc3)c12 [drawing 1357],51 to 75%
4,COc1ccc(F)cc1-c1csc2c(O)nc(-c3ccccn3)nc12 [drawing 1213],25 to 50%
5,Nc1nc(-c2ccccn2)nc2c(Br)csc12 [drawing 1229],25 to 50%
6,COCCNc1nc(-c2cn(C)cn2)nc2sc(C)c(-c3ccccc3)c12 [drawing 1345],25 to 50%
7,Oc1nc(-c2ccncn2)nc2c(-c3cccc(C(F)(F)F)c3)csc12 [drawing 1367],1 to 25%
8,COCCNc1nc(-c2nccn2C)nc2sc(C3CCOCC3)c(-c3ccccc3)c12 [drawing 1350],51 to 75%
9,O=C(CCc1cncnc1)Nc1nc(-c2ccccn2)nc2sccc12 [drawing 1228],1 to 25%
10,Cc1c(C(=O)O)sc2c(O)nc(-c3ccccn3)nc12 [drawing 1249],25 to 50%
11,OCC1(c2ccc(-c3nc(-c4ccccn4)nc(O)c3Oc3ccccc3)cc2)CC1 [drawing 1294],1 to 25%
12,Nc1nc(-c2ccccn2)nc2c(-c3ccccc3)csc12 [drawing 1201],25 to 50%
13,Cn1ccnc1-c1nc(O)c2scc(-c3cccc(Cl)c3)c2n1 [drawing 1377],25 to 50%
14,Cn1ccnc1-c1nc(O)c2scc(-c3ccccc3Cl)c2n1 [drawing 1375],25 to 50%
15,Oc1nc(-c2ncccn2)nc2c(-c3cccc(C(F)(F)F)c3)csc12 [drawing 1368],1 to 25%
16,Oc1nc(-c2ccccn2)nc2c(-c3ccccc3)c(-c3ccncc3)sc12 [drawing 1308],0%
17,Cn1ccnc1-c1nc(O)c2scc(-c3ccccc3)c2n1 [drawing 1374],76 to 100%
18,Cn1cnc(-c2nc(O)c3scc(-c4cccc(C(F)(F)F)c4)c3n2)c1 [drawing 1364],1 to 25%
19,Nc1nc(-c2ccccn2)nc2c(-c3ccccn3)csc12,76 to 100%
20,NC(=O)C1CCCN1C(=O)c1cccc(-c2cc3nc(N)nc(O)c3s2)c1 (centres unmarked) [drawing 1304],1 to 25%
21,Cc1sc2c(O)nc(-c3nccn3C)nc2c1-c1ccccc1Cl [drawing 1362],1 to 25%
22,COc1nccc(CCNC(=O)c2csc3nc(-c4ccccn4)nc(N4CCOCC4)c23)n1 [drawing 1234],25 to 50%
23,Oc1nc(-c2ccccn2)nc2cc(-c3cccc(Br)c3)sc12 [drawing 1324],25 to 50%
24,COc1cnc(-c2cnc[nH]2)nc1O [drawing 1276],1 to 25%
25,COc1ccc(CCNC(=O)c2csc3nc(-c4ccccn4)nc(N4CCS(=O)(=O)CC4)c23)cn1 [drawing 1195],1 to 25%
26,Oc1nc(-c2ccccn2)nc2c(C3CC3)csc12 [drawing 1278],51 to 75%
27,Cc1cnc(-c2ccccn2)nc1NC(=O)Cc1ccc2cnccc2c1 [drawing 1198],25 to 50%
28,CCC(C)c1csc2c(OC)nc(-c3ccccn3)nc12 (centres unmarked) [drawing 1245],25 to 50%

# Same assay, conditions: Homo sapiens, at 30 μM
row,SMILES,inhibition at 30 µM
1,Oc1nc(-c2ccccn2)nc2[nH]cnc12 [drawing 1076],1 to 25%
2,O=C(c1csc2c(O)nc(-c3ccccn3)nc12)N1CCC(c2cccnc2)CC1 [drawing 1070],1 to 25%
3,CC(C)NC(=O)Nc1cccc(C(=O)Nc2nnc(-c3ccccn3)[nH]2)c1 [drawing 993],1 to 25%
4,CC(C)c1nc(CC(=O)Nc2nnc(-c3ccccn3)[nH]2)cs1 [drawing 1003],1 to 25%
5,Cc1ccccc1C1CN(C(=O)c2csc3c(O)nc(-c4ccccn4)nc23)CCN1 (centres unmarked) [drawing 1152],1 to 25%
6,COCCCCNC(=O)c1csc2nc(-c3ccccn3)nc(N3CCOCC3)c12 [drawing 1156],1 to 25%
7,O=C(Nc1nc(-c2ccccn2)cs1)C1CC(=O)N(c2ccc3c(c2)OCCO3)C1 (centres unmarked) [drawing 1031],25 to 50%
8,COc1cnc(CN)[nH]c1=O [drawing 1163],1 to 25%
9,CC(c1ccccc1)N1CCN(C(=O)c2csc3c(O)nc(-c4ccccn4)nc23)CC1 (centres unmarked) [drawing 1166],1 to 25%
10,O=C(c1csc2c(O)nc(-c3ccccn3)nc12)N1CCOC(c2ccc(F)cc2)C1 (centres unmarked) [drawing 1134],1 to 25%
11,O=c1nc(-c2ccccn2)[nH]c2sc(-c3ccccc3)cc12 [drawing 1037],25 to 50%
12,Cc1cnc(-c2ccccn2)nc1NC(=O)Cc1ccc(C#N)cc1 [drawing 1173],51 to 75%
13,O=C(c1csc2c(O)nc(-c3ccccn3)nc12)N1CCOC(c2ccc(Cl)cc2)C1 (centres unmarked) [drawing 1127],1 to 25%
14,COc1cccc(N2CCN(C(=O)c3csc4c(O)nc(-c5ccccn5)nc34)CC2)c1 [drawing 1118],76 to 100%
15,Cc1cnc(-c2ccccn2)nc1NC(=O)COCc1ccc(C#N)cc1 [drawing 1174],1 to 25%
16,OC1CCN(c2nc(-c3ccccn3)nc3scc(-c4ccccc4)c23)CC1 [drawing 1103],1 to 25%
17,Cc1sc2nc(-c3ccccn3)nc(NCCCO)c2c1-c1ccccc1 [drawing 1043],1 to 25%

row,SMILES,inhibition at 30 µM
1,COc1ccc(N2CCN(C(=O)c3csc4c(O)nc(-c5ccccn5)nc34)CC2)cc1O [drawing 1164],1 to 25%
2,N#Cc1ccc(CC(=O)Cc2ccnc(-c3ccccn3)n2)cc1,1 to 25%
3,COc1ccc(CN(CC[S+]([O-])c2cc(Cl)ccc2Cl)C2CC2)cc1 (centres unmarked) [drawing 1050],25 to 50%
4,O=C(c1csc2c(O)nc(-c3ccccn3)nc12)N1CCN(c2ccc(O)c(Cl)c2)CC1 [drawing 1165],1 to 25%
5,O=C(Nc1nnc(-c2ccccn2)[nH]1)C1CCCN(c2ncccn2)C1 (centres unmarked) [drawing 1015],1 to 25%
6,COC(=O)c1csc2c(O)nc(-c3ccccn3)nc12 [drawing 1182],25 to 50%
7,O=C(Cn1c(=O)oc2ccccc21)Nc1nnc(-c2ccccn2)[nH]1 [drawing 1010],1 to 25%
8,Oc1nc(-c2ccccn2)nc2c(Br)csc12 [drawing 1064],76 to 100%
9,COc1cc(CCN(C)C(=O)c2csc3nc(-c4ccccn4)nc(N4CCOCC4)c23)ccn1 [drawing 1155],1 to 25%
10,COc1ccnc(-c2nc(O)c3ccsc3n2)c1 [drawing 1114],51 to 75%
11,CC(Oc1ccccc1C#N)C(=O)Nc1nnc(-c2ccccn2)[nH]1 (centres unmarked) [drawing 1013],51 to 75%
12,CN(Cc1cnn(C)c1)c1nc(-c2ccccn2)nc2scc(-c3ccccc3)c12 [drawing 1089],25 to 50%
13,Cc1ccc(CC(=O)Nc2nnc(-c3ccccn3)[nH]2)s1 [drawing 1018],1 to 25%
14,CC(C)CNC(=O)CN1CCN(c2nc(-c3ccccn3)nc3scc(-c4ccccc4)c23)CC1 [drawing 1099],1 to 25%
15,Nc1nc(O)c2nc[nH]c2n1 [drawing 1112],1 to 25%
16,NC(=O)Cn1cnc2nc(-c3ccccn3)nc(N3CCOCC3)c21 [drawing 1184],1 to 25%
17,CON(C)c1nc(-c2ccccn2)nc2scc(-c3ccccc3)c12 [drawing 1095],25 to 50%
